The results in this text go back to patent US20140288069A1, “AMINO-SUBSTITUTED IMIDAZOPYRIDAZINES AS MKNK1 KINASE INHIBITORS” (Bayer Intellectual Property GmbH, priority 2011, published 2014).

T1 sequence (Q9BUB5 1-424 isoform Q9BUB5-2 T344D): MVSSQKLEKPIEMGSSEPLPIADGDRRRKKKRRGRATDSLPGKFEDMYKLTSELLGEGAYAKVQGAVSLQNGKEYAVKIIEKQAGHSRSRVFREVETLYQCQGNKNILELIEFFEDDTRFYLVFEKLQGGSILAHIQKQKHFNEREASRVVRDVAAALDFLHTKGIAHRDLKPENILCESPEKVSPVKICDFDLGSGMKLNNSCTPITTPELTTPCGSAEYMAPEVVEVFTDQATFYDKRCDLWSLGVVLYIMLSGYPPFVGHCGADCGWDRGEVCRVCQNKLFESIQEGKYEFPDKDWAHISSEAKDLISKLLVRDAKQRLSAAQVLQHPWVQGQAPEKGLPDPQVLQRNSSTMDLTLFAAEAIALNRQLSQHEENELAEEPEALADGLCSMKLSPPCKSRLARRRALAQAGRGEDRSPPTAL

The first experiment concerns the target T1, human full-lengt MKNK1 (Homo sapiens, UniProt Q9BUB5, T385D).
T1 construct: GST (N); purchased Carna Biosciences 02-145; host or cells: insect cells (baculovirus)
Nature of the experiment: MKNK1 kinase assay (MKNK1 TR-FRET assay). The class given is biochemical. The conditions noted are these: final ATP 10 μM, 15 min pre-incubation, GST-MKNK1 (T344D). On the technique in general: In TR-FRET formats the signal depends on donor and acceptor labels being close together.
Description: MKNK1-inhibitory activity of compounds of the present invention was quantified employing the MKNK1 TR-FRET assay as described in the following paragraphs.
As substrate for the kinase reaction the biotinylated peptide biotin-Ahx-[sequence] (C-terminus in amide form) was used which can be purchased e.g. form the company Biosyntan (Berlin-Buch, Germany).
For the assay 50 mL of a 100 fold concentrated solution of the test compound in DMSO was pipetted into a black low volume 384 well microtiter plate (Greiner Bio-One, Frickenhausen, Germany), 2 μL of a solution of MKNK1 in aqueous assay buffer [50 mM HEPES pH 7.5, 5 mM magnesium chloride, 1.0 mM dithiothreitol, 0.005% (v/v) Nonidet-P40 (Sigma)] was added and the mixture was incubated for 15 min at 22° C. to allow pre-binding of the test compounds to the enzyme before the start of the kinase reaction. […] The concentration of MKNK1 was adjusted depending of the activity of the enzyme lot and was chosen appropriate to have the assay in the linear range, typical concentrations were in the range of 0.05 μg/ml. The reaction was stopped by the addition of 5 μL of a solution of TR-FRET detection reagents (5 nM streptavidine-XL665 [Cisbio Bioassays, Codalet, France] and 1 nM anti-ribosomal protein S6 (pSer236)-antibody from Invitrogen [#44921G] and 1 nM LANCE EU-W1024 labeled ProteinG [Perkin-Elmer, product no. 4D0071]) in an aqueous EDTA-solution (100 mM EDTA, 0.1% (w/v) bovine serum albumin in 50 mM HEPES pH 7.5).
The resulting mixture was incubated for 1 h at 22° C. to allow the formation of complex between the phosphorylated biotinylated peptide and the detection reagents. Subsequently the amount of phosphorylated substrate was evaluated by measurement of the resonance energy transfer from the Eu-chelate to the streptavidine-XL.
Consider `CC[C@@H](CO)Nc1ccc2ncc(-c3cc4ccccc4o3)n2n1` [Example 4, (2S)-2-{[3-(1-Benzofuran-2-yl)-imidazo[1,2-b]-pyridazin-6-yl]-amino}butan-1-ol], for which half-maximal inhibition (IC50) was put at 15 nM. The same measure, in the same setting: next, `OCCNc1ccc2ncc(-c3cc4ccccc4o3)n2n1` [Example 13, 2-{[3-(1-Benzofuran-2-yl)imidazo[1,2-b]pyridazin-6-yl]amino}ethanol]: 6 nM. With `OCCCNc1ccc2ncc(-c3cc4ccccc4o3)n2n1` [Example 14, 3-{[3-(1-Benzofuran-2-yl)imidazo[1,2-b]pyridazin-6-yl]amino}propan-1-ol], inhibition was half-maximal at 7 nM (IC50). Same read-out and setting: the same measure for `OC(CCNc1ccc2ncc(-c3cc4ccccc4o3)n2n1)c1ccc(F)cc1` (centres unmarked) [Example 15, 3-{[3-(1-Benzofuran-2-yl)-imidazo-[1,2-b]-pyridazin-6-yl]-amino}-1-(4-fluoro-phenyl)-propan-1-ol]: 32 nM; for `OC[C@H](O)CNc1ccc2ncc(-c3cc4ccccc4o3)n2n1` [Example 16, (2R)-3-{[3-(1-Benzofuran-2-yl)imidazo[1,2-b]pyridazin-6-yl]amino}propane-1,2-diol]: 4 nM.

Take `OC[C@@H](O)CNc1ccc2ncc(-c3cc4ccccc4o3)n2n1` [Example 17, (2S)-3-{[3-(1-Benzofuran-2-yl)-imidazo-[1,2-b]-pyridazin-6-yl]amino}-propane-1,2-diol]: half-maximal inhibition (IC50) was put at 13 nM.

Compound `O[C@@H](CNc1ccc2ncc(-c3cc4ccccc4o3)n2n1)c1ccccc1` [Example 18, (1R)-2-{[3-(1-Benzofuran-2-yl)imidazo[1,2-b]pyridazin-6-yl]amino}-1-phenylethanol] displayed a concentration for half-maximal inhibition (IC50) of 1 nM. The same measure, in the same setting: the same measure for `O[C@H](CNc1ccc2ncc(-c3cc4ccccc4o3)n2n1)c1ccccc1` [Example 19, (1S)-2-{[3-(1-Benzofuran-2-yl)imidazo[1,2-b]pyridazin-6-yl]amino}-1-phenylethanol]: 22 nM; for `O[C@@H](CNc1ccc2ncc(-c3cc4ccccc4o3)n2n1)c1cccnc1` [Example 20, (1R)-2-{[3-(1-Benzofuran-2-yl)imidazo[1,2-b]pyridazin-6-yl]amino}-1-(pyridin-3-yl)ethanol]: 1 nM; for `CC(O)(CNc1ccc2ncc(-c3cc4ccccc4o3)n2n1)c1ccccc1` (centres unmarked) [Example 21, 1-{[3-(1-Benzofuran-2-yl)imidazo[1,2-b]pyridazin-6-yl]amino}-2-phenylpropan-2-ol]: 60 nM. On the same count and under the same terms, the same measure for `OC(CNc1ccc2ncc(-c3cc4ccccc4o3)n2n1)c1ccccn1` (centres unmarked) [Example 22, 2-{[3-(1-Benzofuran-2-yl)imidazo[1,2-b]pyridazin-6-yl]amino}-1-(pyridin-2-yl)ethanol]: 5 nM; for `c1ccc(CNc2ccc3ncc(-c4ccncc4)n3n2)cc1` [Example R1, N-Benzyl-3-(pyridin-4-yl)imidazo[1,2-b]pyridazin-6-amine, reference compound]: 181 nM.

Compound `c1ccc(Nc2ccc3ncc(-c4ccncc4)n3n2)cc1` [Example R2, N-Phenyl-3-(pyridin-4-yl)imidazo-[1,2-b]-pyridazin-6-amine, reference compound] came in with an IC50 of 64 nM. Still for that read-out and setting: the same measure for `c1cc(Nc2ccc3ncc(-c4ccncc4)n3n2)ccn1` [Example R4, N,3-Di(pyridin-4-yl)-imidazo-[1,2-b]-pyridazin-6-amine, reference compound]: 245 nM; for `c1cc(-c2cnc3ccc(NC4CCOCC4)nn23)ccn1` [Example R5, 3-(Pyridin-4-yl)-N-(tetra-hydro-2H-pyran-4-yl)-imidazo-[1,2-b]-pyridazin-6-amine, reference compound]: 192 nM. The same measure, in the same setting: the same measure for `c1ccc(CCNc2ccc3ncc(-c4cc5ccccc5o4)n3n2)nc1` [Example R6, 3-(1-Benzofuran-2-yl)-N-[2-(pyridin-2-yl)ethyl]imidazo[1,2-b]pyridazin-6-amine, reference compound]: 17 nM. The same measure, in the same setting: next, `CN(C)CCNc1ccc2ncc(-c3cc4ccccc4o3)n2n1` [Example R7, N′-[3-(1-Benzofuran-2-yl)imidazo[1,2-b]pyridazin-6-yl]-N,N-dimethylethane-1,2-diamine, reference compound]: 11 nM; `c1ccc2oc(-c3cnc4ccc(NCc5ccncc5)nn34)cc2c1` [Example R8, 3-(1-Benzofuran-2-yl)-N-(pyridin-4-ylmethyl)imidazo[1,2-b]pyridazin-6-amine, reference compound]: 23 nM.

In a further experiment the target is T2, human full-length MKNK1 (Homo sapiens, UniProt Q9BUB5, T385D).
T2 construct: GST (N); purchased Carna Biosciences 02-145; host or cells: insect cells (baculovirus)
T2 sequence (Q9BUB5 1-424 isoform Q9BUB5-2 T344D): as above
Description: MKNK1 kinase high ATP assay (TR-FRET-based).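 Also: biotinylated peptide phosphorylation read out via Eu-chelate to streptavidin-XL665 energy transfer using anti-phospho-S6 (Ser236) antibody, 30 min reaction at 22 °C with 0.06 µM substrate.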 Conditions: final ATP 2 mM, 15 min pre-incubation with MKNK1, GST-MKNK1 (T344D). The class given is biochemical.
Description: A recombinant fusion protein of Glutathione-S-Transferase (GST, N-terminally) and human full-length MKNK1 (amino acids 1-424 and T344D of accession number BAA 19885.1), expressed in insect cells using baculovirus expression system and purified via glutathione sepharose affinity chromatography, was purchased from Carna Biosciences (product no 02-145) and used as enzyme. As substrate for the kinase reaction the biotinylated peptide biotin-Ahx-[sequence] (C-terminus in amide form) was used, which can be purchased e.g. from the company Biosyntan (Berlin-Buch, Germany).
For the assay 50 nl nL of a 100 fold concentrated solution of the test compound in DMSO was pipetted into a black low volume 384 well microtiter plate (Greiner Bio-One, Frickenhausen, Germany), 2 μL of a solution of MKNK1 in aqueous assay buffer [50 mM HEPES pH 7.5, 5 mM magnesium chloride, 1.0 mM dithiothreitol, 0.005% (v/v) Nonidet-P40 (Sigma)] was added and the mixture was incubated for 15 min at 22° C. to allow pre-binding of the test compounds to the enzyme before the start of the kinase reaction. Then the kinase reaction was started by the addition of 3 μL of a solution of adenosine-tri-phosphate (ATP, 3.3 mM=>final conc. in the 5 μL assay volume is 2 mM) and substrate (0.1 μM=>final conc. in the 5 μL assay volume is 0.06 μM) in assay buffer and the resulting mixture was incubated for a reaction time of 30 min at 22° C. The concentration of MKNK1 was adjusted depending of the activity of the enzyme lot and was chosen appropriate to have the assay in the linear range, typical concentrations were in the range of 0.003 μg/mL. The reaction was stopped by the addition of 5 μL of a solution of TR-FRET detection reagents (5 nM streptavidine-XL665 [Cisbio Bioassays, Codolet, France] and 1 nM anti-ribosomal protein S6 (pSer236)-antibody from Invitrogen [#44921G] and 1 nM LANCE EU-W1024 labeled ProteinG [Perkin-Elmer, product no. 4D0071]) in an aqueous EDTA-solution (100 mM EDTA, 0.1% (w/v) bovine serum albumin in 50 mM HEPES pH 7.5).
The resulting mixture was incubated for 1 h at 22° C. to allow the formation of complex between the phosphorylated biotinylated peptide and the detection reagents. Subsequently the amount of phosphorylated substrate was evaluated by measurement of the resonance energy transfer from the Eu-chelate to the streptavidine-XL. Therefore, the fluorescence emissions at 620 nm and 665 nm after excitation at 350 nm were measured in a TR-FRET reader, e.g. a Rubystar (BMG Labtechnologies, Offenburg, Germany) or a Viewlux (Perkin-Elmer). The ratio of the emissions at 665 nm and at 622 nm was taken as the measure for the amount of phosphorylated substrate.
With `OC(CNc1ccc2ncc(-c3cc4ccccc4o3)n2n1)C1CC1` (single isomer, unassigned; (+)) [Example 23, (+)-2-{[3-(1-Benzofuran-2-yl)imidazo[1,2-b]pyridazin-6-yl]amino}-1-cyclopropylethanol], the IC50 is 27 nM.

On to `OC(CNc1ccc2ncc(-c3cc4ccccc4o3)n2n1)C1CCOCC1` (single isomer, unassigned; (+)) [Example 25, (+)-2-{[3-(1-Benzofuran-2-yl)imidazo[1,2-b]pyridazin-6-yl]amino}-1-(tetrahydro-2H-pyran-4-yl)], for which it took 7 nM to reach half-maximal inhibition (IC50).

Compound `OC(CNc1ccc2ncc(-c3cc4ccccc4o3)n2n1)C1CC1` (single isomer, unassigned; (-)) [Example 24, (−)-2-{[3-(1-Benzofuran-2-yl)imidazo[1,2-b]pyridazin-6-yl]amino}-1-cyclopropylethanol] displayed an IC50 of 1 nM. Turning to `OC(CNc1ccc2ncc(-c3cc4ccccc4o3)n2n1)C1CCOCC1` (single isomer, unassigned; (-)) [Example 26, (−)-2-{[3-(1-Benzofuran-2-yl)imidazo[1,2-b]pyridazin-6-yl]amino}-1-(tetrahydro-2H-pyran-4-yl)], the IC50 came out at 2 nM. Regarding `COc1nccc2oc(-c3cnc4ccc(NCC(O)C5CC5)nn34)cc12` (centres unmarked) [Example 27, 1-Cyclopropyl-2-{[3-(4-methoxyfuro[3,2-c]pyridin-2-yl)imidazo[1,2-b]pyridazin-6-yl]amino}ethanol], the IC50 worked out at 4 nM. The same measure, in the same setting: next, `COc1nccc2oc(-c3cnc4ccc(NC[C@H](O)c5ccccc5)nn34)cc12` [Example 28, (1R)-2-{[3-(4-Methoxyfuro[3,2-c]pyridin-2-yl)imidazo[1,2-b]pyridazin-6-yl]amino}-1-phenylethanol]: 5 nM; `CCC(O)CNc1ccc2ncc(-c3cc4ccccc4o3)n2n1` (centres unmarked) [Example 29, 1-{[3-(1-Benzofuran-2-yl)imidazo[1,2-b]pyridazin-6-yl]amino}butan-2-ol]: 6 nM. The same measure, in the same setting: the same measure for `CCC(O)CNc1ccc2ncc(-c3cc4c(OC)nccc4o3)n2n1` (centres unmarked) [Example 30, 1-{[3-(4-Methoxyfuro[3,2-c]pyridin-2-yl)imidazo[1,2-b]pyridazin-6-yl]amino}butan-2-ol]: 6 nM; for `NCC(O)CNc1ccc2ncc(-c3cc4ccccc4o3)n2n1` (centres unmarked) [Example 31, 1-Amino-3-{[3-(1-benzofuran-2-yl)imidazo[1,2-b]pyridazin-6-yl]amino}propan-2-ol]: 8 nM; for `COc1nccc2oc(-c3cnc4ccc(NCC(O)C5CCOCC5)nn34)cc12` (centres unmarked) [Example 32, 2-{[3-(4-Methoxyfuro[3,2-c]pyridin-2-yl)imidazo[1,2-b]pyridazin-6-yl]amino}-1-(tetrahydro-2H-pyran-4-yl)ethanol]: 18 nM.

As to `CC(C)C(O)CNc1ccc2ncc(-c3cc4ccccc4o3)n2n1` (centres unmarked) [Example 33, 1-{[3-(1-Benzofuran-2-yl)imidazo[1,2-b]pyridazin-6-yl]amino}-3-methylbutan-2-ol], half-maximal inhibition (IC50) required 21 nM.

Consider `CC(C)(C)C(O)CNc1ccc2ncc(-c3cc4ccccc4o3)n2n1` (centres unmarked) [Example 34, 1-{[3-(1-Benzofuran-2-yl)imidazo[1,2-b]pyridazin-6-yl]amino}-3,3-dimethylbutan-2-ol], for which the IC50 is 21 nM. Same read-out and setting: the same measure for `COc1nccc2oc(-c3cnc4ccc(NC[C@@H](O)c5ccccc5)nn34)cc12` [Example 35, (1S)-2-{[3-(4-Methoxyfuro[3,2-c]pyridin-2-yl)imidazo[1,2-b]pyridazin-6-yl]-amino}-1-phenylethanol]: 25 nM; for `O=C1CCCN1CC(O)CNc1ccc2ncc(-c3cc4ccccc4o3)n2n1` (centres unmarked) [Example 36, 1-(3-{[3-(1-Benzofuran-2-yl)imidazo[1,2-b]pyridazin-6-yl]amino}-2-hydroxy-propyl)pyrrolidin-2-one]: 26 nM. Regarding `OC(CNc1ccc2ncc(-c3cc4ccccc4o3)n2n1)C1CCCCC1` (centres unmarked) [Example 37, 2-{[3-(1-Benzofuran-2-yl)imidazo[1,2-b]pyridazin-6-yl]amino}-1-cyclohexylethanol], the IC50 came out at 29 nM. In turn, `OC(CNc1ccc2ncc(-c3cc4ccccc4o3)n2n1)CN1CCOCC1` (centres unmarked) [Example 38, 1-{[3-(1-Benzofuran-2-yl)imidazo[1,2-b]pyridazin-6-yl]amino}-3-(morpholin-4-yl)propan-2-ol] displayed an IC50 of 32 nM. On the same count and under the same terms, next, `OC(CNc1ccc2ncc(-c3cc4ccccc4o3)n2n1)CN1CCCCC1` (centres unmarked) [Example 39, 1-{[3-(1-Benzofuran-2-yl)imidazo[1,2-b]pyridazin-6-yl]amino}-3-(piperidin-1-yl)propan-2-ol]: 37 nM; `OC(CNc1ccc2ncc(-c3cc4ccccc4o3)n2n1)CN1CCCC1` (centres unmarked) [Example 40, 1-{[3-(1-Benzofuran-2-yl)imidazo[1,2-b]pyridazin-6-yl]amino}-3-(pyrrolidin-1-yl)propan-2-ol]: 38 nM. `OC(CNc1ccc2ncc(-c3cc4ccccc4o3)n2n1)c1ccc(F)cc1` (centres unmarked) [Example 41, 2-{[3-(1-Benzofuran-2-yl)imidazo[1,2-b]pyridazin-6-yl]amino}-1-(4-fluoro-phenyl)ethanol] displayed an IC50 of 41 nM. On the same count and under the same terms, next, `c1ccc(CNc2ccc3ncc(-c4ccncc4)n3n2)cc1` [Example R1, N-Benzyl-3-(pyridin-4-yl)imidazo[1,2-b]pyridazin-6-amine, reference compound]: 370 nM; `c1ccc(Nc2ccc3ncc(-c4ccncc4)n3n2)cc1` [Example R2, N-Phenyl-3-(pyridin-4-yl)imidazo-[1,2-b]-pyridazin-6-amine, reference compound]: 170 nM.

For `c1cc(Nc2ccc3ncc(-c4ccncc4)n3n2)ccn1` [Example R4, N,3-Di(pyridin-4-yl)-imidazo-[1,2-b]-pyridazin-6-amine, reference compound], the IC50 was found to be 810 nM.

`c1cc(-c2cnc3ccc(NC4CCOCC4)nn23)ccn1` [Example R5, 3-(Pyridin-4-yl)-N-(tetra-hydro-2H-pyran-4-yl)-imidazo-[1,2-b]-pyridazin-6-amine, reference compound]: the IC50 stood at 480 nM. Still for that read-out and setting: the same measure for `c1ccc(CCNc2ccc3ncc(-c4cc5ccccc5o4)n3n2)nc1` [Example R6, 3-(1-Benzofuran-2-yl)-N-[2-(pyridin-2-yl)ethyl]imidazo[1,2-b]pyridazin-6-amine, reference compound]: 250 nM; for `CN(C)CCNc1ccc2ncc(-c3cc4ccccc4o3)n2n1` [Example R7, N′-[3-(1-Benzofuran-2-yl)imidazo[1,2-b]pyridazin-6-yl]-N,N-dimethylethane-1,2-diamine, reference compound]: 13 nM. On the same count and under the same terms, the same measure for `c1ccc2oc(-c3cnc4ccc(NCc5ccncc5)nn34)cc2c1` [Example R8, 3-(1-Benzofuran-2-yl)-N-(pyridin-4-ylmethyl)imidazo[1,2-b]pyridazin-6-amine, reference compound]: 34 nM.

What is called IC50 is the concentration at which inhibition is half-maximal.
